This is an account of results in patent publication US12590277B2, “High-throughput acoustofluidic fabrication of cell spheroids” (The Trustees of Indiana University, priority 2019, dated 2026).

Assay [1] relates to Panc02 cell spheroids. In words: MTT cytotoxicity assay, Panc02 cell spheroids culture. In kind it is cell-based, murine. As for the experimental part: (§1) The cytotoxic effect of the chemotherapeutic drug Gemcitabine (LC Laboratories, Woburn, Mass., USA) on Panc02 cell spheroids culture was compared to the cytotoxic effect on monolayer culture. For the cytotoxic assay, 1×10^4 cells suspended in complete medium were seeded in each well of a 96-well plate. Four (4)-day-old Panc02 spheroids were transferred to a new 96 ultra-low attachment well plate. The next day, the cells and spheroids were treated with different concentrations of Gemcitabine solution (0, 0.1, 1, 10, 25, 50, 100 μM) in sextuplicate wells. After incubating the cells with Gemcitabine for 48 h, 20 microliter (μl) of 3-(4,5-dimethylthiazol-2-yl)-2,5-diphenyltetrazolium bromide (MTT) solution (5 mg/ml) was added into each well, and the cells were incubated for 4 hours. […] Finally, absorbance was recorded at 570 nm using the Epoch™ microplate spectrophotometer (Bio-Tek Instruments, USA). […]
(§2) Parallel experiments were set with traditional 2D monolayer cell cultures to examine differential response of 2D and 3D cell cultures. Cell number and viability were measured using MTT assay after 2 days of Gemcitabine treatment. The IC50 value was calculated. […]

In assay [2] the test system is Panc02 cells. In words: MTT cytotoxicity assay, Panc02 monolayer culture. In kind it is cell-based, murine. As to the method: as §1, §2

`Nc1ccn([C@@H]2O[C@H](CO)[C@@H](O)C2(F)F)c(=O)n1` [Gemcitabine]: in assay [1] (0-100 μM Gemcitabine, 48 h), the “response to the drug from regression curves, spheroids” value is listed as “dose-dependent response”. The IC50 in assay [1] (Mus musculus, 4-day-old acoustically assembled Panc02 3D spheroids, 48 h (2 days) Gemcitabine treatment) stood at 18.38 ± 0.09 µM; in assay [2] (Mus musculus, Panc02, 2D monolayer culture, 48 h (2 days) Gemcitabine treatment) it was 9.99 ± 0.07 µM. Also, in assay [2] (0-100 μM Gemcitabine, 48 h), the “response to the drug from regression curves, monolayer” value is given as “dose-dependent response”.
